Consider eleven compounds from PMC3152678 (Bioorganic & medicinal chemistry, 2011).

Series [1] deals with T1, LasR (Pseudomonas aeruginosa, UniProt P25084). The series can be described thus: LasR reporter gene agonism assay in P. aeruginosa PA01 MW1. Particulars: P. aeruginosa LasR reporter strain. The class given is cell-based.
In series [2] the target is T1, LasR. Kind of series: LasR reporter gene agonism assay in E. coli DH5α. The class given is cell-based. To be noted: E. coli LasR reporter strain.
The format of series [3] is physicochemical. Particulars: Luria-Bertani medium, 37 °C; pseudo first-order.
Another series deals with immune response. To be noted: mice; cited from earlier work.
The target in series [4] is T2, TraR (Agrobacterium tumefaciens, UniProt P33905). The class given is cell-based. To be noted: dose response.
T2 sequence (P33905 whole entry): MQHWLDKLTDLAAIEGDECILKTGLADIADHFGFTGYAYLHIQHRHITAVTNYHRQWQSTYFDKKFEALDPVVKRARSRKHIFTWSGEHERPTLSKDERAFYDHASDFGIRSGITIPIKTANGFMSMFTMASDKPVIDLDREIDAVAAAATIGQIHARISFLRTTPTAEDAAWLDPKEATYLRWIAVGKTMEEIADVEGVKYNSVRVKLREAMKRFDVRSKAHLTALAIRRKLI
Series [5] has as its target T2, TraR. The series can be described thus: TraR antagonism assay in A. tumefaciens WCF. The class given is cell-based. To be noted: 10 μM, in the presence of OOHL.
Series [6] has as its target T1, LasR. Kind of series: LasR reporter gene antagonism assay in E. coli DH5α. The class given is cell-based. Particulars: E. coli reporter strain.
Another series has as its target LuxR (Aliivibrio fischeri, UniProt P35327). Kind of series: LuxR antagonism assay in V. fischeri ESI 114. The format is cell-based, Vibrio fischeri.
The conditions of series [7]: over the course of a week; cited from earlier work.

T1 sequence (P25084 whole entry): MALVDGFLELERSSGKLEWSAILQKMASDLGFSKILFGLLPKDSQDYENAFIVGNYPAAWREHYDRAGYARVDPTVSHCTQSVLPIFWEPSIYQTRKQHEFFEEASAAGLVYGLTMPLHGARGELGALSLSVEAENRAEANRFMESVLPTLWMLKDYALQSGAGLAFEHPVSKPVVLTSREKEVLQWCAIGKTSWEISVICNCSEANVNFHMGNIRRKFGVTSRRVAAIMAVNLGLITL
Sequence of LuxR (P35327 whole entry): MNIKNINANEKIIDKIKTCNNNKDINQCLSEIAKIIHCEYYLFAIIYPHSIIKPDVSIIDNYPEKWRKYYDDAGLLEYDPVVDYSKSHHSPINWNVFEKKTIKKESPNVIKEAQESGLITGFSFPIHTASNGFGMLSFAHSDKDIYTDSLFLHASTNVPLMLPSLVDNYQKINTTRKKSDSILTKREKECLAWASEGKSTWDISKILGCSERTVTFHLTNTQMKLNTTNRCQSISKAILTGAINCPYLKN

As to `CCCC(=O)CC(=O)N[C@H]1CCSC1=O` [Compound 12], the “EC50 fold higher / fold less active than OdDHL, P. aeruginosa LasR” value on LasR [1] was ~ 10 fold. In addition, the “EC50 fold higher / fold less active than OdDHL, E. coli LasR” value at LasR [2] is ~ 10 fold.

With `CCCCCCCCCC(=O)CC(=O)N[C@H]1CCSC1=O` [Compound 15], the “slope of natural log of percent of positive control vs time” value in series [3] is listed as −0.01025 ± 0.0004. The “times less of an immune response than the native OdDHL” value in the series with immune response is reported as “approximately 40 times”.

Regarding `CCCCCC(=O)CC(=O)N[C@H]1CCSC1=O` [Compound 18], the “fold less active than OOHL (TraR agonism)” value on TraR [4] is given as 100 fold.

On to `CCCC(=O)N[C@H]1CCSC1=O` [Compound 19], for which the “TraR agonism in the antagonism assay (more than OOHL alone)” value (shortened to “TraR agonism in the antagonism assay”) at TraR [5] is on record as “over 70%”.

Take `CCCCCC(=O)N[C@H]1CCSC1=O` [Compound 20, N-hexanoyl thiolactone]: the “TraR agonism in the antagonism assay” value on TraR [5] is listed as “over 70%”.

As for `CCCCCCCC(=O)N[C@H]1CCSC1=O` [Compound 22, N-octanoyl L-thiolactone], the “fold higher concentration than OdDHL to antagonize LasR by 50%” value at LasR [6] is reported as 10 fold. In addition, the “fold lower concentration than OHHL to antagonize LuxR by 50%” value on LuxR is given as 10 fold.

As for `CCCCCCCCCCCC(=O)N[C@H]1CCSC1=O` [Compound 23, N-dodecanoyl thiolactone], on LasR [1], the “EC50 fold higher / fold less active than OdDHL, P. aeruginosa LasR” value is given as ~ 10 fold. For the same compound, on LasR [2], the “EC50 fold higher / fold less active than OdDHL, E. coli LasR” value is reported as ~ 100 fold.

In the case of `COc1ccc(CC(=O)NC2CCSC2=O)cc1` (stereo not shown) [Compound 28], the “TraR agonism in the antagonism assay” value at TraR [5] is listed as 24%.

With `COc1ccc(CC(=O)N[C@H]2CCSC2=O)cc1` [Compound 29], the “agonistic activity in the TraR antagonism assay relative to OOHL” value at TraR [5] came out at 2 ×.

As for `O=C(Cc1ccc(Br)cc1)N[C@H]1CCSC1=O` [Compound 31], the “TraR agonism in the antagonism assay” value at TraR [5] is 60%.

On to `CCCCCCCCCC(=O)CC(=O)N[C@H]1CCOC1=O` [OdDHL, N-(3-oxo)-dodecanoyl HL, reference compound], for which the “slope of natural log of percent of positive control vs time” value in [3] is −0.01399 ± 0.0006. In series [7], the “racemization of the chiral center” value is reported as “less than 5%”.
